Test results reported in patent US20150141460A1, “Anti-inflammatory Compositions” (Cambridge Enterprise Limited, priority 2007, published 2015).

Legend:
[1] = Pharmacokinetics following a single dose in rat (1 mg/kg iv, 3 mg/kg oral), LC-MS/MS, one-compartment model; format: in vivo
Experimental: Compounds were administered as a single dose (either 1 mg/kg bodyweight in 5% DMSO via the intravenous route or 3 mg/kg in 1% carboxymethylcellulose via the oral route) to three adult rats (using different rats for each compound and each route of administration).
Blood was then sampled at various time points (including just prior to dose administration) out to 24 hrs post dose, and the level of the various compounds was assessed using a validated LC-MS/MS assay. Briefly, 3-5 μl of the deproteinised sample was applied to a Waters Atlantis (C18 20×2.1 mm, 3 μm bead size) reverse phase chromatography column equilibrated in 0.1% formic acid in 95:5 water:actetonitrile. Over 3.5 minutes bound material was gradient eluted reaching 0.1% formic acid in 5:95 water:acetonitrile, followed by a step gradient back to 0.1% formic acid in 95:5 water:acetonitrile. The column eluent was then directed to an Applied Biosystems API 4000/3200 QTrap MS/MS mass spectrometer, with a TurboIonspray™ ion source operating in positive ion mode. The interface temperature was set at 650° C., with a 40 ms dwell time for each MRM transition, monitoring the following ions:
The internal standard in each determination was the related compound (S)-3-(2′,2′-dimethyl-propanoylamino)-caprolactam, which was spiked into the sample prior to deproteinization. The lower limit of quantitation (LLOQ) for this assay was 2.4 ng/ml for each compound except (I′), where it was 38.1 ng/ml.
Following LC-MS/MS analysis of each collected sample, the pharmacokinetic disposition of the compound was modelled using Kinetica software, a well known software package for such applications.
Compounds (VI) and (VII) were subject to pharmacokinetic analysis in rat using exactly the same protocols previous applied for compounds (I) through (V) in example 1.
We therefore subjected (VIII) to pharmacokinetic analysis in rat using exactly the same protocols previous applied for compounds (I′) through (VII) in examples 1 and 7.
The isolated (R)-enantiomer of (I) was therefore synthesised (exactly as described herein for the isolated (S)-enantiomer, but replacing the (S)-ornithine starting material with commercially available (R)-ornithine of high stereochemical purity), and the PK properties of this agent, in rat, was determined using the identical methodology described above (see Examples 1, 7 and 8).

[2] = tested on: CD4+ splenocytes (IFN-γ / IL-4); assay: Ovalbumin-induced model of asthma, T-helper cell polarisation (Th1/Th2 ratio) of CD4+ splenocytes by flow cytometry; format: in vivo, Brown Norway rats; details: 0.3 mg/kg daily via the oral route
Text: Bars represent mean Th1/Th2 ratios, shown on the Y-axis, for groups of 10 animals, whiskers represent SEM; * p<0.05 versus unchallenged rats; † p<0.05 versus sensitised and challenged rats, in both cases using Student's unpaired t-test assuming equal variance, with two tails). All rats (except the ‘BN rats’ group, which was not exposed to ovalbumin) received the same sensitisation and challenge regimen, but were either treated with vehicle only (‘Sensitised+vehicle’), or with compound (I′) at 0.3 mg/kg bodyweight or with monteleukast (‘Singulair™’) at 30 mg/kg bodyweight, all administered daily by oral gavage.
Adult Brown Norway rats (200-300 g body weight; n=10 per group) were sensitised by a single intraperitoneal injection of 0.1 mg Ovalbumin on day 0. Each rat then received an intratracheal challenge with a solution of 1% ovalbumin (w/v) on day 8, and with 2% ovalbumin (w/v) on days 15, 18 and 21. The animals were then sacrificed 3 hours after the final challenge on day 21. […]
The spleen was also removed from each […] and placed in RPMI+10% FCS+antibiotics. […] The resulting cell suspension was then centrifuged (328 g; 5 mins) and washed in RPMI+10% FCS+antibiotics, before being resuspended in fresh media and counted using a haemocytometer. […]

[3] = Identification of the primary metabolites in pooled rat urine by LC-MS-MS; format: in vivo; details: single oral dose 3 mg/kg in 1% CMC, pooled urine over 24 hrs, qualitative
Experimental: Urine was collected from rats exposed to a single oral dose (3 mg/kg in 1% CMC) of each compound over a 24 hour period in metabolic cages. The pooled urine sample was then subjected to full scan mass spectral analysis, using the same LC-MS conditions as described in example 1 above. Further MS-MS analysis of the product ions was then performed, and likely fragmentations/re-arrangements assigned from the publicly available Metabolite ID database.
For the major metabolites, the assigned structures were confirmed by synthesis of authentic samples, using methods well known in the art, which were subject to LC-MS-MS analysis under the same conditions as the urine samples.
Note that metabolite ID studies provide only qualitative estimates of the relative amounts of the different metabolites present, and separately validated assays with appropriate internal standards would be required to quantitate each metabolite species.

| minor t½β [1] [h] | Structure (SMILES) | clearance, times lower than for the other lactam BSCIs [1] | plasma half-life, fold longer than the other compounds [1] [fold] | AUC(0-t) ([1]; blood, single oral dose 3 mg/kg in 1% CMC, Tables 7-9, read-out: Exposure (min · ng/ml), oral exposure AUC 0-t (converted)) [ng·h/mL] | oral exposure, fold higher than the next best compound (V) ([1]; oral 3 mg/kg) [fold] | effect on Th2 polarisation (Th1/Th2 ratio) [2] | major metabolites / route of metabolism detected in urine [3] |
| --- | --- | --- | --- | --- | --- | --- | --- |
| – | CC(C)(C)C(=O)N[C@H]1CCCNC1=O [Compound (I′), (S)-3-(2′,2′-dimethylpropanoylamino)-tetrahydropyridin-2-one] | more than 10 times | 10 | 15600 | ~20 | significantly reversed the Th2 polarisation | no significant metabolites |
| 1.83 | O=C1NCCCC[C@@H]1NC(=O)C12CC3CC(CC(O)(C3)C1)C2 [Compound (V), 3-(3′-hydroxyadamantyl-1-carbonylamino)-caprolactam] | – | – | – | – | – | the glucuronidated compound was the major metabolite |
